Tests used:
Assay in all cases: KINOMEscan competition binding
[1] = system: ULK3 (mouse); details: compound 10.0 µM; accession and sequence are those of the human protein
[2] = molecular target: MAP3K12 (human) (UniProt Q12852); details: compound 10.0 µM
[3] = molecular target: RPS6KA1 KD1 (human) (UniProt Q15418); details: compound 10.0 µM
[4] = molecular target: MAP3K5 (human) (UniProt Q99683); details: compound 10.0 µM
[5] = molecular target: MYLK3 (human) (UniProt Q32MK0); details: compound 10.0 µM
MYLK3 (human), sequence (Q32MK0 whole entry, looked up): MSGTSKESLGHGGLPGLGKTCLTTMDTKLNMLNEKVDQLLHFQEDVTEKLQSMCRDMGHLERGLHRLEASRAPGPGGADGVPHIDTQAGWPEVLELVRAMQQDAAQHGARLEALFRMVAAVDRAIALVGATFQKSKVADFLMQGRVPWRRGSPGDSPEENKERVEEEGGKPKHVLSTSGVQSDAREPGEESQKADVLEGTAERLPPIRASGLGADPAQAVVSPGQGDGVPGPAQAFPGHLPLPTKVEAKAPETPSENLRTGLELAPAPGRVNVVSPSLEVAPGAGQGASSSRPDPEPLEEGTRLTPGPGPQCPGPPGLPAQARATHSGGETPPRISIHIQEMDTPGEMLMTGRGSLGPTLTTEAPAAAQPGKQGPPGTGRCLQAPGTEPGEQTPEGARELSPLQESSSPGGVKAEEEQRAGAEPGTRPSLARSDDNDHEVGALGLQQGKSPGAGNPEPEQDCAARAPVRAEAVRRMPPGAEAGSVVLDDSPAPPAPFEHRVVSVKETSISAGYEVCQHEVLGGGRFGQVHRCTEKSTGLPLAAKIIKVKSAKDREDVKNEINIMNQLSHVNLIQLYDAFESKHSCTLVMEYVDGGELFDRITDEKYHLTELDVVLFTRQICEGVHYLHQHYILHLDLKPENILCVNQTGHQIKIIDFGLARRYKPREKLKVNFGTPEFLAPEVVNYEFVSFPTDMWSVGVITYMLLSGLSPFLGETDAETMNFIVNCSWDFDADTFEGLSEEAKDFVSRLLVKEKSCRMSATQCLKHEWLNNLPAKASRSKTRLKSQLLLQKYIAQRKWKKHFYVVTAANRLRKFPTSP

[6] = molecular target: CDK19 (human) (UniProt Q9BWU1); details: compound 10.0 µM
CDK19 (human), sequence (Q9BWU1 whole entry, looked up): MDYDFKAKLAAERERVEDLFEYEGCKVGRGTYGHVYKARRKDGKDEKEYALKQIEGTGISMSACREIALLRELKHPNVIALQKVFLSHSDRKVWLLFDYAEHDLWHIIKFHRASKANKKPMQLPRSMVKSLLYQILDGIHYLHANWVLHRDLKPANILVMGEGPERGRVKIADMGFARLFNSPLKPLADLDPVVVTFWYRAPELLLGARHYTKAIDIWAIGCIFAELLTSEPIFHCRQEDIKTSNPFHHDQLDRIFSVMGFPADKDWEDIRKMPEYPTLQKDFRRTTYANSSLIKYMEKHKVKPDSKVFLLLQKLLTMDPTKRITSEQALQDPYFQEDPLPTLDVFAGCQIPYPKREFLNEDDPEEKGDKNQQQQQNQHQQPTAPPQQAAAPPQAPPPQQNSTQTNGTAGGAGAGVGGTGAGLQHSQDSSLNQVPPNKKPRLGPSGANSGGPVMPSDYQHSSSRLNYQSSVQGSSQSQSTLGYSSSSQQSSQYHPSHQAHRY

[7] = molecular target: CSNK1G2 (human) (UniProt P78368); details: compound 10.0 µM
CSNK1G2 (human), sequence (P78368 whole entry, looked up): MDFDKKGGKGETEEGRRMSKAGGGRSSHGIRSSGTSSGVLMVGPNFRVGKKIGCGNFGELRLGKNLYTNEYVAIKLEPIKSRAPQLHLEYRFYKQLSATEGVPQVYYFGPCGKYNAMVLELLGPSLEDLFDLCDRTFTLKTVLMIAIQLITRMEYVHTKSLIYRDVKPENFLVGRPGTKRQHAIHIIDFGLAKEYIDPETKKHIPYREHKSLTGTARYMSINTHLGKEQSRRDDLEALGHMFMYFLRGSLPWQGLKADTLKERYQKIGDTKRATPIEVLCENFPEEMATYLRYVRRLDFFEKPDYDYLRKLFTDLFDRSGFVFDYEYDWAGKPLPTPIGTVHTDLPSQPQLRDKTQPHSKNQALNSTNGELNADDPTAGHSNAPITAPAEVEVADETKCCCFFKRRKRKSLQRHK

MAP3K12 (human), sequence (Q12852 whole entry, looked up): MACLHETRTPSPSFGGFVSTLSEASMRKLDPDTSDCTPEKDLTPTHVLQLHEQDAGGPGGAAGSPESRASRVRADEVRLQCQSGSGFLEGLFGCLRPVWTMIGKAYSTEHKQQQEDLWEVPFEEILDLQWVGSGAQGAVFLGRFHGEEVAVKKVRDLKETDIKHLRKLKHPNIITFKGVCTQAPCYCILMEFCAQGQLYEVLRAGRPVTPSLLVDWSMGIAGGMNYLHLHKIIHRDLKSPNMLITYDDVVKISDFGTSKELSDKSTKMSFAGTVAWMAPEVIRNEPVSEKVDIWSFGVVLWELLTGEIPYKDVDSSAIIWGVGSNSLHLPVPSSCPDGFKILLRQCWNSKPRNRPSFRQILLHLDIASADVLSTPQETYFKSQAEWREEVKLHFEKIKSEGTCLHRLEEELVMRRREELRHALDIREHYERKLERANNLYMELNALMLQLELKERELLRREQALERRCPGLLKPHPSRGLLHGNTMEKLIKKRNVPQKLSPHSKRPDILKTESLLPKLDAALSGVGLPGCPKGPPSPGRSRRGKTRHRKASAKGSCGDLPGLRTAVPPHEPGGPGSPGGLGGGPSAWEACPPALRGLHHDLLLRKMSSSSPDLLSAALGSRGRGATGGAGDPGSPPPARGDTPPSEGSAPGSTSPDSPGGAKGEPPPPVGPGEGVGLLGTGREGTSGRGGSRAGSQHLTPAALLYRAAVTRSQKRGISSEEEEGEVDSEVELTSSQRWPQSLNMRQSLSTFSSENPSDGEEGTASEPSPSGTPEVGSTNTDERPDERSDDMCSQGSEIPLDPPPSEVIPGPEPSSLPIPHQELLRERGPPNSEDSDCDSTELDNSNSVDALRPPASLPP
RPS6KA1 KD1 (human), sequence (Q15418 whole entry, looked up): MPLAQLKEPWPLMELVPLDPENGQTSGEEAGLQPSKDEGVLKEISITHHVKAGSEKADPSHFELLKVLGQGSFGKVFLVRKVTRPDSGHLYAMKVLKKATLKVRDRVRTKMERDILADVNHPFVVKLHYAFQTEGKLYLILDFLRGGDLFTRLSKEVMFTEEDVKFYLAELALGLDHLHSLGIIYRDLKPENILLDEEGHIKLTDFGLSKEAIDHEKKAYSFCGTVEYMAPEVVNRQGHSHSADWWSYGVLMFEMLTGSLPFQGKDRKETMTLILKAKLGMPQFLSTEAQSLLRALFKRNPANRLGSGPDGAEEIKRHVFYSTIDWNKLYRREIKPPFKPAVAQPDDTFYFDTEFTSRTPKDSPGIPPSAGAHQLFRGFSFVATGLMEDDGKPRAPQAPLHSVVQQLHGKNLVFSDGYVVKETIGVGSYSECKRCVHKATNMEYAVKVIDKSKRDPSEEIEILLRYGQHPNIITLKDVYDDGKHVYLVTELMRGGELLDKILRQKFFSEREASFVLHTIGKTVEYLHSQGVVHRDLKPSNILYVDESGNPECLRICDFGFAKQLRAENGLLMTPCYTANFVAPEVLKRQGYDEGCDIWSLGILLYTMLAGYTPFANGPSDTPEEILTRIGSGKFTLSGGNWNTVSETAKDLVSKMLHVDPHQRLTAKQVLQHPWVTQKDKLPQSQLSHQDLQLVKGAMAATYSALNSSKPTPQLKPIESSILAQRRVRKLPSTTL
MAP3K5 (human), sequence (Q99683 whole entry, looked up): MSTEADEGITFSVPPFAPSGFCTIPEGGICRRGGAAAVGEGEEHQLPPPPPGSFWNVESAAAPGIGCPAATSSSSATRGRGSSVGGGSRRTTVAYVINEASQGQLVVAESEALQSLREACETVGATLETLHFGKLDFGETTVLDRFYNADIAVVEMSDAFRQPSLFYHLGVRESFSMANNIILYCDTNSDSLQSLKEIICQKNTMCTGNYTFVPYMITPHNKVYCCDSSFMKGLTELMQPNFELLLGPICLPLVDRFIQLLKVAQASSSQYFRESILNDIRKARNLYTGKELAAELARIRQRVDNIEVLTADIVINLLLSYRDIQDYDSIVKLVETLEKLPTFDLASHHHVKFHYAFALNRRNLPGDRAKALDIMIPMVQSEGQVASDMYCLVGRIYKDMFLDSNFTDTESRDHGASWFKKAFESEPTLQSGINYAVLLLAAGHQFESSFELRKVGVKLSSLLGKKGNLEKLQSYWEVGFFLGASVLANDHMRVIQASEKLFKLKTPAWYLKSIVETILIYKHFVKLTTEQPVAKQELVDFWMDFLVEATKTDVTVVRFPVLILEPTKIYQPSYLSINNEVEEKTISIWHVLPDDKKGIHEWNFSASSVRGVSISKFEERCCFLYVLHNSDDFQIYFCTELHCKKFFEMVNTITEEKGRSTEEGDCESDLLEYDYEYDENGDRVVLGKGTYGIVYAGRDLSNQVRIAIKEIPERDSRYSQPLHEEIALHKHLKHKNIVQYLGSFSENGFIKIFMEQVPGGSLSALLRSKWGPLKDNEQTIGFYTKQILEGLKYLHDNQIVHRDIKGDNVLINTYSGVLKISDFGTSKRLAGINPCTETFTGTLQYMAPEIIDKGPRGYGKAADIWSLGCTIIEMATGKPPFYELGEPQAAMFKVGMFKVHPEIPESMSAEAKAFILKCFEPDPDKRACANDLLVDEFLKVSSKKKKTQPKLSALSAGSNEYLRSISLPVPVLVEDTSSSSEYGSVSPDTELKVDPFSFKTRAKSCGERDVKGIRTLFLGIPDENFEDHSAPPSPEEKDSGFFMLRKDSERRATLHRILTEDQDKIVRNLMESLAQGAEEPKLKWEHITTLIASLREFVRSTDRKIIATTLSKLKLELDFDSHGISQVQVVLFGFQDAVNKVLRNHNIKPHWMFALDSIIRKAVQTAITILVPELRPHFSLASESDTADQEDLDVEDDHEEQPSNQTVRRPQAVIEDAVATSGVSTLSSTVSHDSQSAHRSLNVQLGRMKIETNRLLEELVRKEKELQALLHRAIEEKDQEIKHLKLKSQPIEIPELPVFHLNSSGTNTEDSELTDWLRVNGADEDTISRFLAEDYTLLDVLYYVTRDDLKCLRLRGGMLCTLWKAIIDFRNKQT

Compound | inhibition of binding [1] | inhibition [2] | inhibition of binding [3] | also measured
N[C@H]1CC[C@H](Nc2nccc(-n3nnc4ccccc43)n2)CC1 | < 50% | – | – | –
O[C@H]1CC[C@H](Nc2nccc(-c3n[nH]c4ccccc34)n2)CC1 | – | – | – | inhibition of binding [4]: < 50%
O=C([C@H]1CC[C@H](Nc2nccc(-n3nnc4ccccc43)n2)CC1)N1CCOCC1 | < 50% | – | – | –

More lines, main results first:

inhibition of binding [1] | inhibition [2] | inhibition of binding [3] | Compound | also measured
– | < 50% | < 50% | O[C@H]1CC[C@H](Nc2nccc(-n3ccc4ccccc43)n2)CC1 | –
– | < 50% | < 50% | O[C@H]1CC[C@H](Nc2nccc(-n3ncc4ccccc43)n2)CC1 | inhibition of binding [5]: < 50%; inhibition [6]: < 50%
– | < 50% | < 50% | O[C@H]1CC[C@H](Nc2nccc(-n3nnc4ccccc43)n2)CC1 | inhibition of binding [7]: < 50%
